The values that follow come from patent US8975417B2, “Pyrazolopyrrolidine derivatives and their use in the treatment of disease” (Novartis AG, priority 2013, dated 2015).

What is called IC50 is the concentration that gives 50% inhibition. Low readings indicate greater potency, high ones weaker potency.

Read-outs that look alike come from different tables or passages of the source.

For one assay, the system named is K-562 cells. In words: Cell growth inhibition assay (CellTiter-Glo), K-562. The format is cell-based, human. The procedure:
(§1) Cell Growth Inhibition Assay
(§2) The human leukemia cell lines MV-4-11, THP-1 and K-562 were employed to characterize the effect of BET inhibitors on cellular proliferation and viability. Cells were obtained from the American Type Culture Collection (ATCC) and cultured at 37° C. in a humidified 5% CO2 incubator in the following media: MV-4-11: DMEM high glucose (Animed #1-26F01-I), 10% FCS (Animed #2-01F26-I), 4 mM L-Glutamine (Animed #5-10K50), 1 mM Sodium Pyruvate (Animed # G03625P), 1× Penicillin-Streptomycin (Animed # F12478P); K-562: Iscove's MEM (Animed #1-28F16-I), 10% FCS (Animed #2-01F26-I), 4 mM L-Glutamine (Animed #5-10K50), 1× Penicillin-Streptomycin (Animed # F12478P); THP-1: RPMI-1640 (Animed #1-41F01-I), 10% FCS (Animed #2-01F26-I), 2 mM L-Glutamine (Animed #5-10K50), 10 mM HEPES (Animed #5-31F100), 1 mM Sodium Pyruvate (Animed # G03625P), 1× Penicillin-Streptomycin (Animed # F12478P). The AML lines MV-4-11 and THP-1 are very sensitive to BET inhibitors and show massive cell death upon BET inhibition (Zuber et al., Nature, 478 (2011), 524-8). Compound-mediated suppression of cell proliferation/viability was assessed by quantification of cellular ATP levels using the CellTiter-Glo (CTG) reagent (Promega). Briefly, cells were seeded in 20 μl fresh medium into 384-well plates, followed by addition of 5 μL medium containing compound dilutions at 5-fold their final intended concentration. Dose-response effects were assessed by 3-fold serial dilutions of the test compound, starting at 10 μM. Following incubation of the cells for days at 37° C. and 5% CO2, the effect of inhibitors on cell viability was quantified following addition of 20 μl CTG and luminescence quantification (integration time: 100 ms) as per vendor manual, using a correspondingly equipped Tecan M200 multi-mode platereader (TECAN, Switzerland). For data analysis, the assay background value determined in wells containing medium, but no cells, was subtracted from all data points. To enable differentiation of cytotoxic from cytostatic compounds, the number of viable cells is assessed relative to that observed at the time of compound addition using a separate cell plate (day 0). The effect of a particular test compound concentration on cell proliferation/viability is expressed as percentage of the background- and day 0-corrected luminescence reading obtained for cells treated with vehicle only (DMSO, 0.1% final concentration), which is set as 100%, whereas that luminescence reading for wells containing medium is set as −100%. Compound concentrations leading to half-maximal (IC50) and total growth inhibition (TGI) were determined using standard four parameter curve fitting.
A general note: ATP-based viability assays read luminescence as a measure of living cells.

The target in the next assay is His-Brd4(44-477) (Homo sapiens (Human), UniProt O60885). In words: TR-FRET in-vitro binding assay for BRD4. The settings on record: biochemical. The method, then: (§3) TR-FRET In-Vitro Binding Assays for BRD2, BRD3, and BRD4:
(§4) All assays were performed in 384-well microtiter plates. Each assay plate contained 8-point serial dilutions for 40 test compounds, plus 16 high- and 16 low controls. Liquid handling and incubation steps were done on an Innovadyne Nanodrop Express equipped with a robotic arm (Thermo CatX, Perkin Elmer/Caliper Twister II) and an incubator (Liconic STX40, Thermo Cytomat 2C450). The assay plates were prepared by addition of 50 nl per well of compound solution in 90% DMSO HummingBird nanodispenser (Zinsser Analytic). The assay was started by stepwise addition of 4.5 μL per well of bromo domain protein (50 mM HEPES, pH 7.5, 0.005% Tween20, 0.1% BSA, 50 mM NaCl, 45 nM His-Brd2(60-472) or 45 nM His-Brd3(20-477) or 45 nM His-Brd4(44-477) all proteins produced in-house) and 4.5 μL per well of peptide solution (50 mM HEPES, pH 7.5, 0.005% Tween20, 0.1% BSA, 50 mM NaCl, 60 nM acetyl-histone H4 (AcK 5, 8, 12, 16) (Biosyntan GmbH)). Reactions were incubated at 30° C. for 35 minutes. Subsequently 4.5 μL per well detection mix (50 mM HEPES, pH 7.5, 0.005% Tween20, 0.1% BSA, 50 mM NaCl, 3 nM Eu-labeled anti-His6 antibody, 21 nM streptavidin-allophycocyanin) were added. After minutes incubation at 30° C., plates were measured in a Perkin Elmer EnVision multilabel reader.
(§5) Test compounds were dissolved in DMSO (10 mM) and transferred into 1.4 mL flat bottom or V-shaped Matrix tubes carrying a unique 2D matrix. The stock solutions were stored at […] if not used immediately. For the test procedure the vials were defrosted and identified by a scanner whereby a working sheet was generated that guided the subsequent working steps. Compound dilutions were made in 96 well plates. This format enabled the assay of maximally […] at 8 concentrations (single points) including 4 reference compounds, if desired (known BET inhibitors from the prior art, for this and other assays of the type disclosed herein). The dilution protocol included the production of “pre-dilution plates”, “master plates” and “assay plates”.
(§6) Polypropylene 96-well plates were used as pre-dilution plates. […] All dilution steps were done on a HamiltonSTAR robot.
(§7) 30 μL of individual compound dilutions including standard compound and controls of the 4 “pre-dilution plates” were transferred into a 384-well “master plate” including the following concentrations 10000, […], 1000, 300, 100, 30, 10 and 3 μM, respectively in 90% of DMSO.
(§8) Identical “assay plates” were then prepared by pipetting 50 nL each of compound dilutions of the “master plates” into 384-well “assay plates” by means of a HummingBird 384-channel dispenser. These plates were used directly for the assay which was performed in a total volume of 13.55 μL.

For the next assay, the target named is His-Brd3(20-477) (Homo sapiens (Human), UniProt Q15059). In words: TR-FRET in-vitro binding assay for BRD3. Conditions: biochemical. The method, then: as §3, §4, §5, §6, §7, §8
Chain of His-Brd3(20-477) (Q15059 20-477): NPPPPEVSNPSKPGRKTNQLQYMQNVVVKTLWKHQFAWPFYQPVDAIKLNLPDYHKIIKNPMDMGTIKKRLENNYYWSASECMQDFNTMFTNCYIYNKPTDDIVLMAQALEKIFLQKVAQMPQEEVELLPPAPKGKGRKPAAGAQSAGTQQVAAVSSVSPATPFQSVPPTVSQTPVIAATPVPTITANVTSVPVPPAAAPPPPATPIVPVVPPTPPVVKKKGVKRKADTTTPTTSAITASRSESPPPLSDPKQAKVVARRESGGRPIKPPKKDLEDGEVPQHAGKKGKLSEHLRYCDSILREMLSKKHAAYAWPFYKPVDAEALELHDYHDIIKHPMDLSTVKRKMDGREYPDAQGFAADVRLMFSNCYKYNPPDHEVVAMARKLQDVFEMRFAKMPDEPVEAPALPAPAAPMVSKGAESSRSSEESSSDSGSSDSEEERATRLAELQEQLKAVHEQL
Another assay addresses His-Brd2(60-472) (Homo sapiens (Human), UniProt P25440). In words: TR-FRET in-vitro binding assay for BRD2. The settings on record: biochemical. The method, then:
as §3, §4, §5, §6, §7, §8
On the technique in general: TR-FRET usually uses a lanthanide donor and a delayed reading to cut background.

In the next assay the test system is THP-1 cells. In words: Cell growth inhibition assay (CellTiter-Glo), THP-1. The settings on record: Homo sapiens, read-out: THP-1 TGI. The format is cell-based. The procedure:
as §1, §2

Another assay concerns MV-4-11 cells. Kind of assay: Cell growth inhibition assay (CellTiter-Glo), MV-4-11. The assay is classed as cell-based. Conditions: Homo sapiens, MV4-11, read-out: MV-4-11 TGI. The method, then:
as §1, §2

The target of assay [1] is His-CREBBP (1081-1197) bromodomain (Homo sapiens (Human), UniProt Q92793). In words: AlphaScreen in-vitro binding assay for CREBBP. The settings on record: biochemical. The procedure:
AlphaScreen In-Vitro Binding Assay for CREBBP
In order to assess bromodomain selectivity, we set up a binding assay using the bromodomain encoded by the CREBBP gene. […] Reactions were incubated at 30° C. for 35 minutes. Subsequently 4.5 μL per well detection mix (50 mM HEPES, pH 7.5, 0.005% Tween20, 0.02% BSA, 150 mM NaCl, 45 μg/ml Ni-chelate acceptor beads, 45 μg/mL streptavidin-donor beads) (Perkin Elmer)) were added. After 60 minutes incubation at room temperature, plates were measured in a Perkin Elmer EnVision multilabel reader. IC50 values were determined from percent inhibition values at different compound concentrations by non-linear regression analysis.
as §5, §6
These plates were used directly for the assay which was performed in a total volume of 13.55 μL.
In general terms: In Alpha technology, singlet oxygen from a donor bead excites a nearby acceptor bead.

[2] abbreviates: Homo sapiens, K562, read-out: K-562 TGI.

Chain of His-Brd2(60-472) (P25440 60-472): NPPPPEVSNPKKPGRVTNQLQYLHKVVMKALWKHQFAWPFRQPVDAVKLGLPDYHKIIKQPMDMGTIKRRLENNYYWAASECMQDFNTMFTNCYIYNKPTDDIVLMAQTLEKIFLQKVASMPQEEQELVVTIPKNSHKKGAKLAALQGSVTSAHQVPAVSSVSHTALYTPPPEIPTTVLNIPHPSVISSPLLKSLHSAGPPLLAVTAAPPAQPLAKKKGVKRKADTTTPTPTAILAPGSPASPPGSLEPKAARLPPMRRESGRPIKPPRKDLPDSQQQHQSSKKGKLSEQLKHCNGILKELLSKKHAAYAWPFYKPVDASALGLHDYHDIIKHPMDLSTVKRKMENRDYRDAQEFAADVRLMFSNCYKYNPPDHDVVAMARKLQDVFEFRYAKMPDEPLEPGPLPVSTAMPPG
Chain of His-CREBBP (1081-1197) bromodomain (Q92793 1081-1197): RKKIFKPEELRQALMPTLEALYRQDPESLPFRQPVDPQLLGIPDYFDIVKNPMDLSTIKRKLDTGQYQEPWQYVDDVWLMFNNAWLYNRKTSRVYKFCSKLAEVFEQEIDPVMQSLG

For the molecule `Cc1c2c(nn1C1CC1)C(=O)N(c1cc(Cl)c(=O)n(C)c1)[C@H]2c1ccc(Cl)cc1` [Example 18, (S)-5-(5-chloro-1-methyl-6-oxo-1,6-dihydropyridin-3-yl)-4-(4-chlorophenyl)-2-cyclopropyl-3-methyl-4,5-dihydropyrrolo[3,4-c]pyrazol-6(2H)-one], the IC (total growth inhibition) was over 10 µM with K-562 cells (setting [2]), over 10 µM in the assay on THP-1 cells and 4.04 µM in the assay with MV-4-11 cells. Also, the IC50 on His-Brd4(44-477) amounted to 23000 nM; on His-Brd3(20-477), 27000 nM; at His-Brd2(60-472), 30000 nM.
Turning to `Cc1cc(N2C(=O)c3nn(C(C)C)c(C)c3C2c2ccc(Cl)cc2F)cn2c(C)nnc12` (stereo not shown) [Example 169, 4-(4-chloro-2-fluorophenyl)-5-(3,8-dimethyl-[1,2,4]triazolo[4,3-a]pyridin-6-yl)-2-isopropyl-3-methyl-4,5-dihydropyrrolo[3,4-c]pyrazol-6(2H)-one], the IC (total growth inhibition) was over 10 µM in the assay on K-562 cells (setting [2]), 0.121 µM in the assay with THP-1 cells and 0.0576 µM in the assay with MV-4-11 cells.
Regarding `CNc1cc(N2C(=O)c3c(c(C)nn3C3CC3)C2c2ccc(Cl)cc2)nn2c(C)nnc12` (racemic) [Example 113, 4-(4-chlorophenyl)-1-cyclopropyl-3-methyl-5-(3-methyl-8-(methylamino)-[1,2,4]triazolo[4,3-b]pyridazin-6-yl)-4,5-dihydropyrrolo[3,4-c]pyrazol-6(1H)-one], the IC50 in assay [1] was over 37 µM; at His-Brd4(44-477), 67 nM; on His-Brd3(20-477) it was 120 nM; on His-Brd2(60-472) it was 86 nM. Further, in the assay with K-562 cells (read-out: K-562 TGI), the IC (total growth inhibition) is over 10 µM.
Consider `Cc1[nH]nc2c1C(c1ccc(Cl)cc1F)N(c1cc(C)c(=O)n(C)c1)C2=O` (stereo not shown) [Example 196, 4-(4-chloro-2-fluorophenyl)-5-(1,5-dimethyl-6-oxo-1,6-dihydropyridin-3-yl)-3-methyl-4,5-dihydropyrrolo[3,4-c]pyrazol-6(2H)-one], for which the results for the IC (total growth inhibition) in the assay on K-562 cells (setting [2]), with THP-1 cells and in the assay with MV-4-11 cells were over 10 µM, 0.53 µM and 0.266 µM, respectively.
On to `Cc1c2c(nn1C1CC1)C(=O)N(c1cc(Cl)c(=O)n(C)c1)C2c1ccc(Cl)cc1` (stereo not shown) [Example 17, 5-(5-chloro-1-methyl-6-oxo-1,6-dihydropyridin-3-yl)-4-(4-chlorophenyl)-2-cyclopropyl-3-methyl-4,5-dihydropyrrolo[3,4-c]pyrazol-6(2H)-one], for which the IC50 in assay [1] was 1.3 µM; on His-Brd4(44-477), 140 nM; on His-Brd3(20-477), 97 nM; at His-Brd2(60-472), 180 nM.
On to `CC(C)n1cc2c(n1)C(=O)N(c1cc(Cl)c(=O)n(C)c1)C2c1ccc(Cl)cc1` (stereo not shown) [Example 42, 5-(5-chloro-1-methyl-6-oxo-1,6-dihydropyridin-3-yl)-4-(4-chlorophenyl)-2-isopropyl-4,5-dihydropyrrolo[3,4-c]pyrazol-6(2H)-one], for which the IC50 in assay [1] is 0.45 µM; at His-Brd4(44-477), 100 nM; on His-Brd3(20-477), 89 nM; on His-Brd2(60-472) it was 91 nM.
Turning to `Cc1noc2ccc(N3C(=O)c4nn(C)c(C)c4C3c3ccc(Cl)cc3)cc12` (stereo not shown) [Example 33, 4-(4-chlorophenyl)-2,3-dimethyl-5-(3-methylbenzo[d]isoxazol-5-yl)-4,5-dihydropyrrolo[3,4-c]pyrazol-6(2H)-one], the IC50 in assay [1] is over 37 µM; on His-Brd4(44-477), 700 nM; at His-Brd3(20-477) it was 920 nM; at His-Brd2(60-472) it was 1200 nM.
Turning to `Cc1nn(C2CC2)c2c1[C@H](c1ccc(Cl)cc1)N(c1cc(C)c3nnc(C)n3c1)C2=O` [Example 118, (S)-4-(4-chlorophenyl)-1-cyclopropyl-5-(3,8-dimethyl-[1,2,4]triazolo[4,3-a]pyridin-6-yl)-3-methyl-4,5-dihydropyrrolo[3,4-c]pyrazol-6(1H)-one], the IC (total growth inhibition) was over 10 µM in the assay with K-562 cells (setting [2]), over 10 µM with THP-1 cells and 3.35 µM in the assay on MV-4-11 cells.
On to `COc1ncccc1-n1nc2c(c1C)C(c1ccc(F)cc1F)N(c1cc(C)c3nnc(C)n3c1)C2=O` (stereo not shown) [Example 193, 4-(2,4-difluorophenyl)-5-(3,8-dimethyl-[1,2,4]triazolo[4,3-a]pyridin-6-yl)-2-(2-methoxypyridin-3-yl)-3-methyl-4,5-dihydropyrrolo[3,4-c]pyrazol-6(2H)-one], for which the IC (total growth inhibition) in the assay with K-562 cells (setting [2]) was over 10 µM; with THP-1 cells, 0.141 µM; in the assay with MV-4-11 cells it was 0.0985 µM.
In the case of `Cc1nn(C2CC2)c2c1C(c1ccc(Cl)cc1)N(c1cc(C)c3nnn(C)c3c1)C2=O` (stereo not shown) [Example 85, 4-(4-chlorophenol)-1-cyclopropyl-5-(1,4-dimethyl-1H-benzo[d][1,2,3]triazol-6-yl)-3-methyl-4,5-dihydropyrrolo[3,4-c]pyrazol-6(1H)-one], the IC50 is 8.3 µM in assay [1], 14 nM on His-Brd4(44-477), 16 nM on His-Brd3(20-477) and 24 nM at His-Brd2(60-472).
With `Cc1nn(C2CC2)c2c1[C@@H](c1ccc(Cl)cc1F)N(c1cc(C)c3nnc(C)n3c1)C2=O` [Example 190, (S)-4-(4-chloro-2-fluorophenyl)-1-cyclopropyl-5-(3,8-dimethyl-[1,2,4]triazolo[4,3-a]pyridin-6-yl)-3-methyl-4,5-dihydropyrrolo[3,4-c]pyrazol-6(1H)-one], the IC50 in assay [1] amounted to 12 µM; at His-Brd4(44-477), 22 nM; at His-Brd3(20-477), 25 nM; at His-Brd2(60-472), 28 nM.
